According to ChEMBL document CHEMBL3217739 (Medchemcomm, 2011):

Assays:
[1] = system: Plasmodium falciparum; assay: Antimalarial activity against schizont stage of chloroquine-susceptible Plasmodium falciparum 3D7 infected in erythrocytes assessed as inhibition of [3H]hypoxanthine incorporation after 96 hrs by scintillation counting analysis; assay type: functional, organism-based
[2] = Cytotoxicity against rhesus monkey LLC-MK2 cells assessed as cell viability after 48 hrs by MTS assay; assay type: cell-based, Macaca mulatta; details: read-out: LD50
[3] = system: Toxoplasma gondii; assay: Antitoxoplasma activity against Toxoplasma gondii RH tachyzoites isolated from human brain assessed as parasite growth inhibition after 24 hrs by hematoxylin-eosin staining based light microscopy; assay type: functional, organism-based
[4] = Stability of the compound in RPMI medium assessed as half life at 100 uM by HPLC analysis in presence of 10% human serum; assay type: physicochemical; details: RPMI medium with 10% human serum
[5] = system: Plasmodium falciparum; assay: Antimalarial activity against schizont stage of chloroquine-susceptible Plasmodium falciparum 3D7 infected in erythrocytes assessed as inhibition of [3H]hypoxanthine incorporation after 48 hrs by scintillation counting analysis; assay type: functional, organism-based
[6] = system: Plasmodium falciparum; assay: Antimalarial activity against schizont stage of chloroquine-resistant Plasmodium falciparum W2 infected in erythrocytes assessed as inhibition of [3H]hypoxanthine incorporation after 96 hrs by scintillation counting analysis; assay type: functional, organism-based
[7] = system: Plasmodium falciparum; assay: Antimalarial activity against schizont stage of atovaquone-resistant Plasmodium falciparum Tm90C2b infected in erythrocytes assessed as inhibition of [3H]hypoxanthine incorporation after 96 hrs by scintillation counting analysis; assay type: functional, organism-based
[8] = system: Plasmodium falciparum; assay: Antimalarial activity against schizont stage of atovaquone-resistant Plasmodium falciparum Tm90C2b infected in erythrocytes assessed as inhibition of [3H]hypoxanthine incorporation after 48 hrs by scintillation counting analysis; assay type: functional, organism-based
[9] = Cytotoxicity against concanavalin A stimulated BALB/c mouse splenocytes after 72 hrs by alamar blue dye based plate reader analysis; assay type: cell-based, Splenocyte; details: read-out: LD50
[10] = Chemical stability of the compound in aqueous phosphate buffer of pH 7.4 assessed as half life at 100 uM by HPLC analysis; assay type: physicochemical
[11] = system: Toxoplasma gondii; assay: Antitoxoplasma activity against Toxoplasma gondii RH tachyzoites isolated from human brain assessed as parasite growth inhibition after 48 hrs by hematoxylin-eosin staining based light microscopy; assay type: functional, organism-based
[12] = system: Plasmodium falciparum; assay: Antimalarial activity against schizont stage of chloroquine-resistant Plasmodium falciparum W2 infected in erythrocytes assessed as inhibition of [3H]hypoxanthine incorporation after 48 hrs by scintillation counting analysis; assay type: functional, organism-based
[13] = system: Plasmodium falciparum; assay: Ratio of ciprofloxacin IC50 to compound IC50 for chloroquine-susceptible Plasmodium falciparum 3D7 infected in erythrocytes after 96 hrs; assay type: functional
[14] = system: Plasmodium falciparum; assay: Ratio of ciprofloxacin IC50 to compound IC50 for atovaquone-resistant Plasmodium falciparum Tm90C2b infected in erythrocytes after 48 hrs; assay type: functional
[15] = Therapeutic index, ratio of LD50 for rhesus monkey LLC-MK2 cells to IC50 for Toxoplasma gondii RH tachyzoites; assay type: cell-based; details: read-out: Ratio LD50/IC50
[16] = system: Plasmodium falciparum; assay: Ratio of ciprofloxacin IC50 to compound IC50 for chloroquine-resistant Plasmodium falciparum W2 infected in erythrocytes after 48 hrs; assay type: functional
[17] = system: Plasmodium falciparum; assay: Ratio of ciprofloxacin IC50 to compound IC50 for chloroquine-susceptible Plasmodium falciparum 3D7 infected in erythrocytes after 48 hrs; assay type: functional
[18] = Therapeutic index, ratio of LD50 for concanavalin A stimulated BALB/c mouse splenocytes to IC50 for chloroquine-susceptible Plasmodium falciparum 3D7 infected in erythrocytes; assay type: cell-based; details: read-out: Ratio LD50/IC50
[19] = system: Plasmodium falciparum; assay: Ratio of ciprofloxacin IC50 to compound IC50 for chloroquine-resistant Plasmodium falciparum W2 infected in erythrocytes after 96 hrs; assay type: functional
[20] = system: Plasmodium falciparum; assay: Ratio of ciprofloxacin IC50 to compound IC50 for atovaquone-resistant Plasmodium falciparum Tm90C2b infected in erythrocytes after 96 hrs; assay type: functional

Structure (SMILES)	IC50 [1] [µM]	CC50 at 48 h [2] [µM]	IC50 [3] [µM]	half-life at 100 µM [4] [h]	IC50 [5] [µM]	IC50 [6] [µM]	IC50 [7] [µM]	IC50 ([8]; read-out: IC50) [µM]	CC50 at 72 h [9] [µM]	half-life at 100 µM [10] [h]	IC50 [11] [µM]	IC50 [12] [µM]	further results
CCOC(=O)c1cn(C2CC2)c2cc(N3CCN(Cc4ccccc4)CC3)c(F)cc2c1=O	0.32	> 30	1.7	> 76	1.08	0.49	2.35	2.56	57	> 76	1.24	1.61	
CCOC(=O)c1cn(C2CC2)c2cc(N3CCN(CCC45CC6CC(CC(C6)C4)C5)CC3)c(F)cc2c1=O	0.41	27.8	0.92	> 76	1	0.71	2.23	2.46	> 100	> 76	0.46	2.06	Ratio IC50 [13]: 31; Ratio IC50 [14]: 29; selectivity ratio [15]: > 60; Ratio IC50 [16]: 60; Ratio IC50 [17]: 47; selectivity ratio [18]: > 100; Ratio IC50 [19]: 7; Ratio IC50 [20]: 7
O=C1C(O)=C([C@H]2CC[C@H](c3ccc(Cl)cc3)CC2)C(=O)c2ccccc21 [ATOVAQUONE]	0.0019				0.0023	0.002	0.388	> 10				0.0039	
CCOC(=O)c1cn(C2CC2)c2cc(N3CCNCC3)c(F)cc2c1=O [CIPROFLOXACIN ETHYL ESTER]	0.89	> 30	0.96	> 76	2.33	0.84	2.27	3.56	> 40	> 76	0.42	3.67	
O=C(O)c1cn(C2CC2)c2cc(N3CCNCC3)c(F)cc2c1=O [CIPROFLOXACIN]	12.8				47	16.8	15.3					122	IC50 [8]: 71.8 µM
CCc1nc(N)nc(N)c1-c1ccc(Cl)cc1 [PYRIMETHAMINE]	0.0021		0.24		0.0133	0.0023	0.0014	0.0146			0.12	0.0104	
C=C[C@H]1CN2CC[C@H]1C[C@H]2[C@H](O)c1ccnc2ccc(OC)cc12 [QUININE]	0.112							1.07				0.917	
